From patent publication US20250136578A1 (Kolm Therapeutics Inc., priority 2023, published 2025)
Read-outs that look alike come from different tables or passages of the source.

Legend:
AR / CBP ternary complex = AR / CBP ternary complex (Homo sapiens, UniProt P10275+Q92793); assay: Ternary complex formation assay (sandwich ELISA, AR capture, CBP antibody detection) in VCaP cell lysates; assay type: cell-based
Experimental: Black MaxiSorp plates: coat with 50 μL of mouse 1/50 diluted AR antibody (Monoclonal Antibody (AR 441 from Thermo Fisher); diluted in phosphate buffered saline (PBS). Spin the liquid to the bottom of the wells, if necessary. Incubate overnight at 4° C. Next day, wash 3 times with 200 μL of TBST. Block with 200 μL of blocking buffer (5% BSA in TBST) at room temperature for 2 hours (BSA: A4503 or A2153 from Sigma). Wash plates 3 times with TBST. Plates are ready for lysates Preparation of dimerizer treated lysates
Culture cells in 96 wells at 50K VCaP cells/well for at least 3 days. Plate in 5% Omega charcoal stripped FBS in total volume of 200 uL. Treat with bifunctional for 1.5 hours by adding 1 μL of 200× stock in DMSO. Aspirate media/compound. Add and pipet-to-mix 70 μL of 1× AlphaLisa Lysis Buffer to each well (Perkin Elmer, AlphaLISA SureFire Ultra, diluted in water). Pipet up and down when adding lysis buffer to disrupt cells. Let lysis proceed for 30 min at 4° C.
Incubate for 1 hour at room temperature. Flick out the lysates. Wash 3 times with TBST. Add 75 μL of rabbit CBP or p300 antibody to each well (diluted 1:5000 in blocking buffer (5% BSA in TBST). CBP antibody: (D6C5) Rabbit mAb #7389; p300 antibody: (D8Z4E) Rabbit mAb #86377. Incubate overnight at 4° C. Wash 3 times with 300 uL TBST, each time on shaker for 5-10 min. Prepare goat anti-rabbit antibody conjugated to HRP (1/100K dilution in blocking buffer) Invitrogen Catalog number: 32260. Add 75 μL of HRP-conjugated goat anti-rabbit antibody. Incubate at room temperature for 1 hour. Flick out the HRP-antibody mixture. Wash 7-8 times with TBST, each time on shaker for 10 min. Later washes try to overflow the wells so that no residual HRP remains bound to the sides of the well. Prepare and add 75 uL/well of QuantaRed Enhance Chemifluorescent HRP Substrate solution. Immediately read fluorescence on BMG ClarioStar (ex: 570/em 585), and repeat the read in 5 minutes and 15 minutes.

VCaP cells = assay: VCaP growth inhibition assay (CTG); assay type: cell-based; settings: Homo sapiens, 216 h, 30 pM R1881, 9 days
Experimental: VCaP cells (ATCC Cat #CRL-2876) are plated at 1×10^4 cells per well of a white plastic 96-well cluster plate (Thermo Scientific Nunc Cat #165306) in 100 uL phenol red-free DMEM (Gibco Cat #21063-029) media with 5% CSS (Omega Scientific Cat #FB-04). Cluster plates are returned to the incubator (37*C/5% CO2) for 72 hours prior to treatment. Just prior to treatment, 100 uL of phenol red-free DMEM/5% CSS and 60 pM R1881 (Sigma Cat #R0908-10 mg) was added to each well of the cluster plates (Final R1881 concentration=30 pM). Compounds (200X) were added to each well in a volume of 1 uL, with serial dilutions (1:5) from 20 uM to 2 pM (final concentrations in well are 100 nM to 10 fM). Cluster plates are returned to the incubator for 9 days.
After the 9-day treatment period, media was removed from the cluster plates by inversion and 100 uL room temperature CTG reagent (Promega Cat #G7573) is added to each well. The cluster plates are placed on a shaker and incubated at room temperature for 20 minutes. Following this shaking/incubation, cluster plates are read on a luminometer (BMG ClarioStar). IC50 values are obtained by graphing the RLU data vs. compound concentration with nonlinear regression 4-parameter logistic curves (GraphPad Prism).

[1] = treated 1.5 hours, rabbit CBP or p300 antibody detection, average, read-out: Average Ternary Complex

Chain of AR / CBP ternary complex (P10275 whole entry): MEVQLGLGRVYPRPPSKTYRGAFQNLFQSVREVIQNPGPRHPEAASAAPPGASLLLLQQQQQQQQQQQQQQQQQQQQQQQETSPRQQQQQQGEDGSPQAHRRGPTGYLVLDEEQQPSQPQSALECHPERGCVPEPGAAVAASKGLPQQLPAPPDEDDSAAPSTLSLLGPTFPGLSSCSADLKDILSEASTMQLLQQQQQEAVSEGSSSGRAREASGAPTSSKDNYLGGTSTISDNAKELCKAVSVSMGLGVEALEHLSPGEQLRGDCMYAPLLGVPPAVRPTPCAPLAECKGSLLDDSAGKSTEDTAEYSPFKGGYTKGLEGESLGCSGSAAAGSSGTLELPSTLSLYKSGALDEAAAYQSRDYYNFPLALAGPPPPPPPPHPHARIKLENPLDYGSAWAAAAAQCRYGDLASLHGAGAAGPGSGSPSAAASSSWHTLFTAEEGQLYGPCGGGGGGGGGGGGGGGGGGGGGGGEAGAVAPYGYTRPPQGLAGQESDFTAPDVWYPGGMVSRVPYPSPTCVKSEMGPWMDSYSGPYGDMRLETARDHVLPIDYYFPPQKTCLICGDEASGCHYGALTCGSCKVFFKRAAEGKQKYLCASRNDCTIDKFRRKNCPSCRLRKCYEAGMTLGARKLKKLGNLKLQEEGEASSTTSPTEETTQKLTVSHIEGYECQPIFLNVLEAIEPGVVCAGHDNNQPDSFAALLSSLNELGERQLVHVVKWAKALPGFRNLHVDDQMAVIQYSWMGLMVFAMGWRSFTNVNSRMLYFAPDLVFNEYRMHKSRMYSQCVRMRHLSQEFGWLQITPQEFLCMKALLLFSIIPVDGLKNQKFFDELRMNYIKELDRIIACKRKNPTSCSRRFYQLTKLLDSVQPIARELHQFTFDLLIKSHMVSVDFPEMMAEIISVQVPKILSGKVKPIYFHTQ
Chain of AR / CBP ternary complex (Q92793 2-2442): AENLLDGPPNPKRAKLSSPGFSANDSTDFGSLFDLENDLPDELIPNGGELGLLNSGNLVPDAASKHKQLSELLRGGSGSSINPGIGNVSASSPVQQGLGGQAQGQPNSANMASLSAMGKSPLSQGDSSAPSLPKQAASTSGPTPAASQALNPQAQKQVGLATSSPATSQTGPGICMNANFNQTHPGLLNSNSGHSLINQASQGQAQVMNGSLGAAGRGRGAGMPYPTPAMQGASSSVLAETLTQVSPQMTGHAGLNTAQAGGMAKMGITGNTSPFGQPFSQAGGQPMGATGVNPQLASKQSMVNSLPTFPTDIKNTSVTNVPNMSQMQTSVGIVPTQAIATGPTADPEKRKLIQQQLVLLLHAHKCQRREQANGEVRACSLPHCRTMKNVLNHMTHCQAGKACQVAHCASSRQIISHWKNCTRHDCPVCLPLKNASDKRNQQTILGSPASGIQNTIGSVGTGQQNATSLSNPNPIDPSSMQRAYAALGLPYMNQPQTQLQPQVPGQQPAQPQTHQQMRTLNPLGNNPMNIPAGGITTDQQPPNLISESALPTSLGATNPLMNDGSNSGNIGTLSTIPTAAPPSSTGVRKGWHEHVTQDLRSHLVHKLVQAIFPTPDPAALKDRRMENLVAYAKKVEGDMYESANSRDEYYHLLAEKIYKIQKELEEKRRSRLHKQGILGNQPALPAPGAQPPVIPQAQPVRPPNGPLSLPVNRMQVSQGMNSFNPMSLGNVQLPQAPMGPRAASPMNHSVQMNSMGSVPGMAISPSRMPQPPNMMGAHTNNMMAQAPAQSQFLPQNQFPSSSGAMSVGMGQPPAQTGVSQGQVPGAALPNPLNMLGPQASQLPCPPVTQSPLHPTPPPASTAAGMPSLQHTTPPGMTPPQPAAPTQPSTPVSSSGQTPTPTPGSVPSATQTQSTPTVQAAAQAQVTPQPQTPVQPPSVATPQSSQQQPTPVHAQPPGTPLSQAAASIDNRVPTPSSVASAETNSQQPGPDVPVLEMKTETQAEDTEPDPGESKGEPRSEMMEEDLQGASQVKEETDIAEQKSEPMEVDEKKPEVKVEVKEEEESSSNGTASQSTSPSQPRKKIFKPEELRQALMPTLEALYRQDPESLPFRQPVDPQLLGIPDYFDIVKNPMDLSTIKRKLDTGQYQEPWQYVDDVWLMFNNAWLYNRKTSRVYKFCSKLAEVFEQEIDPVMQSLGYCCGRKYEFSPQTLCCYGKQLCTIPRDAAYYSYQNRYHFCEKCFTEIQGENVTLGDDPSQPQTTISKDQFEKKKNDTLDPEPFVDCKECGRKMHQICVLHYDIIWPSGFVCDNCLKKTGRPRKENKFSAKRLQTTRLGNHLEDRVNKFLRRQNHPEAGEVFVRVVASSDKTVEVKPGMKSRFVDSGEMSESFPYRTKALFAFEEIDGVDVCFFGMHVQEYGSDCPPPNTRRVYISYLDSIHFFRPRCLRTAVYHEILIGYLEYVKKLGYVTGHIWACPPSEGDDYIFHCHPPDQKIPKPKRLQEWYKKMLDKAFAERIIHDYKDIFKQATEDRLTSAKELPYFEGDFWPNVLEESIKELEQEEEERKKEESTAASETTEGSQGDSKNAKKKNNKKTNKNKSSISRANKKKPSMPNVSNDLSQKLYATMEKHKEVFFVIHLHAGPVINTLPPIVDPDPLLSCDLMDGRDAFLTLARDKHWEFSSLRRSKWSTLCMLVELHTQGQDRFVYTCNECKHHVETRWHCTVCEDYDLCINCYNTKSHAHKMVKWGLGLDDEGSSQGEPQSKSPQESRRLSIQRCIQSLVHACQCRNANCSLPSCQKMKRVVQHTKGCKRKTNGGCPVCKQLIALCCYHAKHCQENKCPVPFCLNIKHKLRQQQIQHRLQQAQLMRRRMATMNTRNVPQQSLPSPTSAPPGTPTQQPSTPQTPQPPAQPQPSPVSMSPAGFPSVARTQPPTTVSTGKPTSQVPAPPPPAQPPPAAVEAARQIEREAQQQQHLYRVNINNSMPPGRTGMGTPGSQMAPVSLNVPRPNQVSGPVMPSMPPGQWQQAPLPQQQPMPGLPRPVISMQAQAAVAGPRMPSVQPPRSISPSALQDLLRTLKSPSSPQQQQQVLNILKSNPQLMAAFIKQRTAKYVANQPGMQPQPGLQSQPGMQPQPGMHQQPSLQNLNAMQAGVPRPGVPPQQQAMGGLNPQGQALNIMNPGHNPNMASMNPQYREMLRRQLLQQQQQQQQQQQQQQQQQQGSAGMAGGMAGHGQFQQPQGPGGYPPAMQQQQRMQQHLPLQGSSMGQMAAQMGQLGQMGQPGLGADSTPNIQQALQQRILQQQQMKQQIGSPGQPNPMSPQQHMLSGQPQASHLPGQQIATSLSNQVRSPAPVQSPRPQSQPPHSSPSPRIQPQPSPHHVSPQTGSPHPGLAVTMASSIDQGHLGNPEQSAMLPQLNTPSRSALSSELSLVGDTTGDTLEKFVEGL

EC50 (AR / CBP ternary complex; [1]) [nM]	IC50 (VCaP cells) [nM]	Structure (SMILES)	EC50 (AR / CBP ternary complex; read-out: Average Ternary Complex, treated 1.5 hours, rabbit CBP or p300 antibody detection) [nM]
< 1	≤ 0.1	Cc1cc2c(N3CCN(C)c4cc(-c5cnn(C)c5)c(C#N)cc43)cc(OCCOC3CCN(c4ccc(C(=O)N[C@H]5CC[C@H](Oc6ccc(C#N)c(Cl)c6)CC5)nn4)CC3)cc2n(C)c1=O [Compound 39, N-[4-(3-chloro-4-cyano-phenoxy)cyclohexyl]-6-[4-[2-[[5-[7-cyano-4-methyl-6-(1-methylpyrazol-4-yl)-2,3-dihydroquinoxalin-1-yl]-1,3-dimethyl-2-oxo-7-quinolyl]oxy]ethoxy]-1-piperidyl]pyridazine-3-carboxamide]	
< 1	≤ 0.1	CC(=O)N1CCc2c(c(N3CCCc4cc(C#N)c(C(F)F)cc43)nn2C2CCN(C[C@H]3[C@H](C)CN(c4ccc(C(=O)N[C@H]5CC[C@H](Oc6ccc(C#N)c(Cl)c6)CC5)nn4)C[C@@H]3C)CC2)C1 [Compound 286, 6-[4-[[4-[5-acetyl-3-[6-cyano-7-(difluoromethyl)-3,4-dihydro-2H-quinolin-1-yl]-6,7-dihydro-4H-pyrazolo[4,3-c]pyridin-1-yl]-1-piperidyl]methyl]-3,5-dimethyl-1-piperidyl]-N-[4-(3-chloro-4-cyano-phenoxy)cyclohexyl]pyridazine-3-carboxamide]	
< 1	0.1 to 1	CC(=O)N1CCc2c(c(N3CCCc4cc(-c5cnn(C)c5)c(C(F)F)cc43)nn2[C@H]2CC[C@]3(CCN(C4CN(c5ccc(C(=O)N[C@H]6CC[C@H](Oc7ccc(C#N)c(Cl)c7)CC6)nn5)C4)C3)CC2)C1 [Compound 262, 6-[3-[8-[5-acetyl-3-[7-(difluoromethyl)-6-(1-methylpyrazol-4-yl)-3,4-dihydro-2H-quinolin-1-yl]-6,7-dihydro-4H-pyrazolo[4,3-c]pyridin-1-yl]-2-azaspiro[4.5]decan-2-yl]azetidin-1-yl]-N-[4-(3-chloro-4-cyano-phenoxy)cyclohexyl]pyridazine-3-carboxamide]	
< 1	0.1 to 1	CC(=O)N1CCc2c(c(N3CCCc4cc(-c5cnn(C)c5)c(C(F)F)cc43)nn2C2CCN([C@@H]3CCN(c4ccc(C(=O)N[C@H]5CC[C@H](Oc6ccc(C#N)c(Cl)c6)CC5)nn4)C3)CC2)C1 [Compound 222, 6-[(3R)-3-[4-[5-acetyl-3-[7-(difluoromethyl)-6-(1-methylpyrazol-4-yl)-3,4-dihydro-2H-quinolin-1-yl]-6,7-dihydro-4H-pyrazolo[4,3-c]pyridin-1-yl]-1-piperidyl]pyrrolidin-1-yl]-N-[4-(3-chloro-4-cyano-phenoxy)cyclohexyl] pyridazine-3-carboxamide]	
1 to 10	> 100	Cn1c(=O)n(C)c2cc(-c3cccc4cc(-c5ccc(CCC6CCN(c7ccc(C(=O)N[C@H]8CC[C@H](Oc9ccc(C#N)c(Cl)c9)CC8)nn7)CC6)nc5)ncc34)ccc21 [Compound 52, N-[4-(3-chloro-4-cyano-phenoxy)cyclohexyl]-6-[4-[2-[5-[8-(1,3-dimethyl-2-oxo-benzimidazol-5-yl)-3-isoquinolyl]-2-pyridyl]ethyl]-1-piperidyl]pyridazine-3-carboxamide]	
< 1	0.1 to 1	CC(=O)N1CCc2c(c(N3CCCc4cc(-c5ncco5)c(C(F)F)cc43)nn2C2CCN(CC3CCN(c4ccc(C(=O)N[C@H]5CC[C@H](Oc6ccc(C#N)c(Cl)c6)CC5)nn4)CC3)CC2)C1 [Compound 256, 6-[4-[[4-[5-acetyl-3-[7-(difluoromethyl)-6-oxazol-2-yl-3,4-dihydro-2H-quinolin-1-yl]-6,7-dihydro-4H-pyrazolo[4,3-c]pyridin-1-yl]-1-piperidyl]methyl]-1-piperidyl]-N-[4-(3-chloro-4-cyano-phenoxy)cyclohexyl] pyridazine-3-carboxamide]	
< 1	≤ 0.1	CC(=O)N1CCc2c(c(N3CCCc4cc(-c5cnn(C)c5)c(C(F)F)cc43)nn2[C@H]2CC[C@H](N3CC4(CC(Oc5ccc(C(=O)N[C@H]6CC[C@H](Oc7ccc(C#N)c(Cl)c7)CC6)nn5)C4)C3)CC2)C1 [Compound 249]	
1 to 10	1 to 100	CC(=O)N1CCc2c(c(-c3cccc4cc(-c5cnn([C@H]6CC[C@H](C7CCN(c8ccc(C(=O)N[C@H]9CC[C@H](Oc%10ccc(C#N)c(Cl)c%10)CC9)nn8)CC7)CC6)c5)ncc34)nn2C2CCOCC2)C1 [Compound 184]	
	0.1 to 1	CC(=O)N1CCc2c(c(N3CCCc4cc(-c5ccc(OC6CC7(CCN(c8ccc(C(=O)N[C@H]9CC[C@H](Oc%10ccc(C#N)c(Cl)c%10)CC9)nn8)CC7)C6)nc5)c(C(F)F)cc43)nn2C2CCOCC2)C1 [Compound 202, 6-[2-[[5-[1-(5-acetyl-1-tetrahydropyran-4-yl-6,7-dihydro-4H-pyrazolo[4,3-c]pyridin-3-yl)-7-(difluoromethyl)-3,4-dihydro-2H-quinolin-6-yl]-2-pyridyl]oxy]-7-azaspiro[3.5]nonan-7-yl]-N-[4-(3-chloro-4-cyano-phenoxy)cyclohexyl]pyridazine-3-carboxamide]	
	≤ 0.1	CC(=O)N1CCc2c(c(N3CCCc4cc(-c5cnn(C)c5)c(C(F)F)cc43)nn2C2CCN(C3CCC4(CC3)CN(c3ccc(C(=O)N[C@H]5CC[C@H](Oc6ccc(C#N)c(Cl)c6)CC5)nn3)C4)CC2)C1 [Compound 185, 6-[7-[4-[5-acetyl-3-[7-(difluoromethyl)-6-(1-methylpyrazol-4-yl)-3,4-dihydro-2H-quinolin-1-yl]-6,7-dihydro-4H-pyrazolo[4,3-c]pyridin-1-yl]-1-piperidyl]-2-azaspiro[3.5]nonan-2-yl]-N-[4-(3-chloro-4-cyano-phenoxy)cyclohexyl]pyridazine-3-carboxamide]	
	0.1 to 1	CC(=O)N1CCc2c(c(-c3cccc4cc(-c5ccc(N6CCC7(CC6)CCN(c6ccc(C(=O)N[C@H]8CC[C@H](Oc9ccc(C#N)c(Cl)c9)CC8)nn6)CC7)nc5)ncc34)nn2C2CCOCC2)C1 [Compound 179, 6-[9-[5-[8-(5-acetyl-1-tetrahydropyran-4-yl-6,7-dihydro-4H-pyrazolo[4,3-c]pyridin-3-yl)-3-isoquinolyl]-2-pyridyl]-3,9-diazaspiro[5.5]undecan-3-yl]-N-[4-(3-chloro-4-cyano-phenoxy)cyclohexyl]pyridazine-3-carboxamide]	
	0.1 to 1	CC(=O)N1CCc2c(c(Nc3ccc(-c4cnn(C)c4)cc3F)nn2C2CCN(CCC3CCN(c4ncc(C(=O)N[C@H]5CC[C@H](Oc6ccc(C#N)c(Cl)c6)CC5)cn4)CC3)CC2)C1 [Compound 10, 2-[4-[2-[4-[5-acetyl-3-[2-fluoro-4-(1-methylpyrazol-4-yl)anilino]-6,7-dihydro-4H-pyrazolo[4,3-c]pyridin-1-yl]-1-piperidyl]ethyl]-1-piperidyl]-N-[4-(3-chloro-4-cyano-phenoxy)cyclohexyl]pyrimidine-5-carboxamide]	

Structure (SMILES)	EC50 (AR / CBP ternary complex; [1]) [nM]	IC50 (VCaP cells) [nM]	EC50 (AR / CBP ternary complex; read-out: Average Ternary Complex, treated 1.5 hours, rabbit CBP or p300 antibody detection) [nM]
CC(=O)N1CCc2c(c(N3CCCc4cc(-c5cnn(C)c5)c(C(F)F)cc43)nn2[C@H]2[C@@H]3C[C@H]2CN(CC2CCN(c4ccc(C(=O)N[C@H]5CC[C@H](Oc6ccc(C#N)c(Cl)c6)CC5)nn4)CC2)C3)C1 [Compound 150, N-[4-(3-chloro-4-cyano-phenoxy)cyclohexyl]-6-[4-[[rac-(1R,5S)-6-[5-acetyl-3-[7-(difluoromethyl)-6-(1-methylpyrazol-4-yl)-3,4-dihydro-2H-quinolin-1-yl]-6,7-dihydro-4H-pyrazolo[4,3-c]pyridin-1-yl]-3-azabicyclo[3.1.1]heptan-3-yl]methyl]-1-piperidyl]pyridazine-3-carboxamide]		0.1 to 1	1 to 10
